Experiments:
soybean = assay: Test B pre/postemergence soybean; assay type: in vivo, Glycine max
How it was run: (§1)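 Herbicidal effect was estimated by eye on a ten-point control scale after plants spent twelve to sixteen days in a greenhouse following soil or foliar treatment. Foliar sprays targeted plants at one to four leaves; all doses were formulated in a non-phytotoxic solvent with surfactant.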

surinam grass = assay: Test B pre/postemergence surinam grass; assay type: in vivo, Brachiaria decumbens
How it was run: as §1

wheat = assay: Test B pre/postemergence wheat; assay type: in vivo, Triticum aestivum
How it was run: as §1

duck salad = assay: Test B flood test duck salad; assay type: in vivo, Heteranthera limosa
How it was run: (§2)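 Flood test on plants grown to the 2-leaf stage; treated plants kept in greenhouse twelve to sixteen days, then visually rated against controls on a 0 (no effect) to 10 (complete control) scale.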

corn = assay: Test B pre/postemergence corn; assay type: in vivo, Zea mays
How it was run: as §1

cocklebur = assay: Test B pre/postemergence cocklebur; assay type: in vivo, Xanthium strumarium
How it was run: as §1

crabgrass = assay: Test B pre/postemergence crabgrass; assay type: in vivo, Digitaria sanguinalis
How it was run: as §1

purple nutsedge = assay: Test B pre/postemergence purple nutsedge; assay type: in vivo, Cyperus rotundus
How it was run: as §1

sugar beet = assay: Test B pre/postemergence sugar beet; assay type: in vivo, Beta vulgaris
How it was run: as §1

rape = assay: Test B pre/postemergence rape; assay type: in vivo, Brassica napus
How it was run: as §1

rice = assay: Test B flood test rice; assay type: in vivo, Oryza sativa
How it was run: as §2

velvetleaf = assay: Test B pre/postemergence velvetleaf; assay type: in vivo, Abutilon theophrasti
How it was run: as §1

giant foxtail = assay: Test B pre/postemergence giant foxtail; assay type: in vivo, Setaria faberii
How it was run: as §1

blackgrass = assay: Test B pre/postemergence blackgrass; assay type: in vivo, Alopecurus myosuroides
How it was run: as §1

bamyardgrass = assay: Test B flood test barnyardgrass; assay type: in vivo, Echinochloa crus-galli
How it was run: as §2

smallflower flatsedge = assay: Test B flood test smallflower flatsedge; assay type: in vivo, Cyperus difformis
How it was run: as §2

bedstraw = assay: Test B pre/postemergence bedstraw; assay type: in vivo, Galium aparine
How it was run: as §1

[1] = Postemergence, Rate 62 g/ha, scale 0 to 10, 0 is no effect, 10 is complete control
[2] = Postemergence, Rate 250 g/ha, scale 0 to 10, 0 no effect, 10 complete control
[3] = Preemergence, Rate 62 g/ha, scale 0 to 10 (0 no effect, 10 complete control)
[4] = Preemergence, Rate 125 g/ha, scale 0 to 10 (0 no effect, 10 complete control)
[5] = Preemergence, Rate 250 g/ha, scale of 0 to 10 where 0 is no effect and 10 is complete control
[6] = Preemergence, Rate 500 g/ha, scale 0 (no effect) to 10 (complete control)
[7] = Rate 125 g/ha, Postemergence, scale 0 to 10, 0 no effect, 10 complete control
[8] = Rate 500 g/ha, Postemergence, scale 0 to 10, 0 no effect, 10 complete control
[9] = Rate 125 g/ha, Postemergence section (flood test species), scale 0 to 10, 0 no effect, 10 complete control
[10] = Rate 500 g/ha, listed under Postemergence (flood test species), scale 0 to 10, 0 no effect, 10 complete control
[11] = flood test, listed under Postemergence, Rate 250 g/ha, scale 0 to 10, 0 no effect, 10 complete control

## Cc1cc(C)c(-n2c(=O)on(C(=O)N(c3ccc(Cl)cc3)C(C)C)c2=O)c(C)c1 [Compound 61]
soybean; [1]
  Soybean plant response rating: 1
soybean; [2]
  Soybean plant response rating: 4
soybean; [3]
  Soybean plant response rating: 0
soybean; [4]
  Plant response rating, Soybean: 0
soybean; [5]
  Plant response rating, Soybean: 0
soybean; [6]
  Soybean plant response rating: 0
soybean; [7]
  Soybean plant response rating: 3
soybean; [8]
  Soybean plant response rating: 5
Surinam grass; [1]
  B. signalgrass plant response rating: 0
Surinam grass; [2]
  B. signalgrass plant response rating: 0
Surinam grass; [3]
  B. signalgrass plant response rating: 0
Surinam grass; [4]
  Plant response rating, B. signalgrass: 1
Surinam grass; [5]
  Plant response rating, B. signalgrass: 5
Surinam grass; [6]
  B. signalgrass plant response rating: 5
Surinam grass; [7]
  B. signalgrass plant response rating: 0
Surinam grass; Rate 500 g/ha, Postemergence, scale of 0 to 10 where 0 is no effect and 10 is complete control
  B. signalgrass plant response rating: 1
wheat; [1]
  Wheat plant response rating: 0
wheat; [2]
  Wheat plant response rating: 0
wheat; [3]
  Wheat plant response rating: 0
wheat; [4]
  Plant response rating, Wheat: 0
wheat; [5]
  Plant response rating, Wheat: 0
wheat; [6]
  Wheat plant response rating: 0
wheat; [7]
  Wheat plant response rating: 0
wheat; [8]
  Wheat plant response rating: 0
Duck salad; [1]
  Ducksalad plant response rating: 0
Duck salad; [9]
  Ducksalad plant response rating: 0
Duck salad; [10]
  Ducksalad plant response rating: 0
Duck salad; [11]
  Ducksalad plant response rating: 0
corn; [1]
  Corn plant response rating: 0
corn; [2]
  Corn plant response rating: 0
corn; [3]
  Corn plant response rating: 0
corn; [4]
  Plant response rating, Corn: 0
corn; [5]
  Plant response rating, Corn: 0
corn; [6]
  Corn plant response rating: 0
corn; [7]
  Corn plant response rating: 0
corn; [8]
  Corn plant response rating: 0
cocklebur; [1]
  Cocklebur plant response rating: 0
cocklebur; [2]
  Cocklebur plant response rating: 0
cocklebur; [3]
  Cocklebur plant response rating: 0
cocklebur; [4]
  Plant response rating, Cocklebur: 0
cocklebur; [5]
  Plant response rating, Cocklebur: 0
cocklebur; [6]
  Cocklebur plant response rating: 0
cocklebur; [7]
  Cocklebur plant response rating: 0
cocklebur; [8]
  Cocklebur plant response rating: 1
crabgrass; [1]
  Crabgrass plant response rating: 0
crabgrass; [2]
  Crabgrass plant response rating: 0
crabgrass; [3]
  Crabgrass plant response rating: 0
crabgrass; [4]
  Plant response rating, Crabgrass: 4
crabgrass; [5]
  Plant response rating, Crabgrass: 7
crabgrass; [6]
  Crabgrass plant response rating: 8
crabgrass; [7]
  Crabgrass plant response rating: 0
crabgrass; [8]
  Crabgrass plant response rating: 0
Purple nutsedge; [1]
  Nutsedge plant response rating: 0
Purple nutsedge; [2]
  Nutsedge plant response rating: 0
Purple nutsedge; [3]
  Nutsedge plant response rating: 0
Purple nutsedge; [4]
  Plant response rating, Nutsedge: 0
Purple nutsedge; [5]
  Plant response rating, Nutsedge: 0
Purple nutsedge; [6]
  Nutsedge plant response rating: 0
Purple nutsedge; [7]
  Nutsedge plant response rating: 0
Purple nutsedge; [8]
  Nutsedge plant response rating: 0
Sugar beet; [1]
  Sugarbeets plant response rating: 0
Sugar beet; [2]
  Sugarbeets plant response rating: 2
Sugar beet; [3]
  Sugarbeets plant response rating: 0
Sugar beet; [4]
  Plant response rating, Sugarbeets: 0
Sugar beet; [5]
  Plant response rating, Sugarbeets: 5
Sugar beet; [6]
  Sugarbeets plant response rating: 6
Sugar beet; [7]
  Sugarbeets plant response rating: 2
Sugar beet; [8]
  Sugarbeets plant response rating: 6
rape; [1]
  Rape plant response rating: 0
rape; [2]
  Rape plant response rating: 0
rape; [3]
  Rape plant response rating: 0
rape; [4]
  Plant response rating, Rape: 0
rape; [5]
  Plant response rating, Rape: 0
rape; [6]
  Rape plant response rating: 0
rape; [7]
  Rape plant response rating: 0
rape; [8]
  Rape plant response rating: 3
rice; [1]
  Rice plant response rating: 0
rice; [9]
  Rice plant response rating: 0
rice; [10]
  Rice plant response rating: 0
rice; [11]
  Rice plant response rating: 0
velvetleaf; [1]
  Velvetleaf plant response rating: 0
velvetleaf; [2]
  Velvetleaf plant response rating: 0
velvetleaf; [3]
  Velvetleaf plant response rating: 0
velvetleaf; [4]
  Plant response rating, Velvetleaf: 0
velvetleaf; [5]
  Plant response rating, Velvetleaf: 0
velvetleaf; [6]
  Velvetleaf plant response rating: 0
velvetleaf; [7]
  Velvetleaf plant response rating: 0
velvetleaf; [8]
  Velvetleaf plant response rating: 0
Giant foxtail; [1]
  Giant foxtail plant response rating: 0
Giant foxtail; [2]
  Giant foxtail plant response rating: 0
Giant foxtail; [3]
  Giant foxtail plant response rating: 3
Giant foxtail; [4]
  Plant response rating, Giant foxtail: 7
Giant foxtail; [5]
  Plant response rating, Giant foxtail: 9
Giant foxtail; [6]
  Giant foxtail plant response rating: 10
Giant foxtail; [7]
  Giant foxtail plant response rating: 0
Giant foxtail; [8]
  Giant foxtail plant response rating: 0
blackgrass; [1]
  Blackgrass plant response rating: 0
blackgrass; [2]
  Blackgrass plant response rating: 6
blackgrass; [3]
  Blackgrass plant response rating: 0
blackgrass; [4]
  Plant response rating, Blackgrass: 0
blackgrass; [5]
  Plant response rating, Blackgrass: 5
blackgrass; [6]
  Blackgrass plant response rating: 6
blackgrass; [7]
  Blackgrass plant response rating: 3
blackgrass; [8]
  Blackgrass plant response rating: 7
bamyardgrass; [1]
  Barnyardgrass plant response rating: 0
bamyardgrass; [9]
  Barnyardgrass plant response rating: 0
bamyardgrass; [10]
  Barnyardgrass plant response rating: 0
bamyardgrass; [11]
  Barnyardgrass plant response rating: 0
Smallflower flatsedge; [1]
  S. Flatsedge plant response rating: 0
Smallflower flatsedge; [9]
  S. Flatsedge plant response rating: 0
Smallflower flatsedge; [10]
  S. Flatsedge plant response rating: 0
Smallflower flatsedge; [11]
  S. Flatsedge plant response rating: 0
bedstraw; [1]
  Bedstraw plant response rating: 2
bedstraw; [2]
  Bedstraw plant response rating: 6
bedstraw; [3]
  Bedstraw plant response rating: 0
bedstraw; [4]
  Plant response rating, Bedstraw: 0
bedstraw; [5]
  Plant response rating, Bedstraw: 2
bedstraw; [6]
  Bedstraw plant response rating: 2
bedstraw; [7]
  Bedstraw plant response rating: 3
